# Reference: publication PMC7794297
# Where two headings read alike, the source gives them in different places.
# What was measured:
# glucose oxidase (GOx) [1] = target: T1, glucose oxidase (GOx) (Aspergillus niger, UniProt P13006); assay: GOx activity assay, glucose oxidase-horseradish peroxidase coupled system with o-dianisidine; format: biochemical; design: purchased Sigma Aldrich; settings: for 1/Vo: Lineweaver-Burk;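 on GOx activity: GOx activity followed by o-dianisidine absorbance at 500 nm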
# glucose oxidase (GOx) [2] = target: T1, glucose oxidase (GOx); assay: GOx-DCL in presence of DTNB; design: purchased Sigma Aldrich; settings: large excess of DTNB
# Procedure: The equilibration of the DCL was completed after 24 h (Fig. 9) and the oligomers were identified by HPLC-MS (Supplementary Figs. 4–20). The precise composition of the DCL (with and without GOx), was assessed by measuring the relative peak area (RPA). The normalized change of RPA was used to quantify the protein influence in the final DCL showing the amplification of the dimer of compound 4, that is (4)2 (Fig. 9b). Control experiments were set up to verify that the amplification of the dimer was not due to unspecific binding. Firstly the GOx was replaced by the bovine serum albumin (BSA). A stability study of BSA under the DCL conditions was performed using a fluorescence technique confirming the BSA stability in the DCL experiment (Supplementary Fig. 48)[50].
# % v/v DMSO (266 µL). The DCL was stabilized for 24 hours at 6 °C. Then, BS A was removed by ultracentrifugation thr ough an Amicon ultra -filter (10 KDa) and the solution was analyzed by […]
# GOx-DCL in presence of DTNB.
# GOx- directed DCL: Dithiols 1-2 […]
# To elucídate the type of inhibitor, Lineweaver-Burk plot were performed. GOx activity was measured at increasing concentration s of glucose (0.2 mM to 4 mM) and in presence and absence of (4)2 and DTNB. According to fluorescence s tudies and their Kd’ values, the concentration of the inhibitors were chosen. […]
# IC50 was determined using different concentrations of inhibitors DTNB and (4)2. […]
# glucose oxidase (GOx) [3] = target: T1, glucose oxidase (GOx); assay: Tryptophan fluorescence emission binding experiments with GOx; design: purchased Sigma Aldrich; settings: for Kd: GOx 0.8 µM, Tris pH 7.8, 5% DMSO, 10 °C
# apo and holo GOx = target: apo and holo GOx; design: method as in PMID 10491329; settings: apo and holo GOx forms; cited from earlier work
# [4] = [DTNB] 8 uM, Supplementary Figure 52 c
# [5] = [DTNB] 40 uM, Supplementary Figure 52 c
# [6] = [DTNB] 80 uM, Supplementary Figure 52 c
# [7] = [DTNB] 200 uM, Supplementary Figure 52 c
# [8] = [DTNB] 400 uM, Supplementary Figure 52 c
# [9] = [Glucose] 1.6 μM, Supplementary Figure 52 a
# [10] = [Glucose] 32 μM, Supplementary Figure 52 a
# [11] = [Glucose] 48 μM, Supplementary Figure 52 a
# [12] = [Glucose] 400 μM, Supplementary Figure 52 a
# [13] = [Glucose] 800 μM, Supplementary Figure 52 a
# [14] = [Glucose] 2000 μM, Supplementary Figure 52 a
# [15] = [Glucose] 4000 μM, Supplementary Figure 52 a
# [16] = [Glucose] 8000 μM, Supplementary Figure 52 a
# [17] = [Glucose] 12000 μM, Supplementary Figure 52 a
# [18] = [Glucose] 20000 μM, Supplementary Figure 52 a
# T1 sequence (P13006 17-605): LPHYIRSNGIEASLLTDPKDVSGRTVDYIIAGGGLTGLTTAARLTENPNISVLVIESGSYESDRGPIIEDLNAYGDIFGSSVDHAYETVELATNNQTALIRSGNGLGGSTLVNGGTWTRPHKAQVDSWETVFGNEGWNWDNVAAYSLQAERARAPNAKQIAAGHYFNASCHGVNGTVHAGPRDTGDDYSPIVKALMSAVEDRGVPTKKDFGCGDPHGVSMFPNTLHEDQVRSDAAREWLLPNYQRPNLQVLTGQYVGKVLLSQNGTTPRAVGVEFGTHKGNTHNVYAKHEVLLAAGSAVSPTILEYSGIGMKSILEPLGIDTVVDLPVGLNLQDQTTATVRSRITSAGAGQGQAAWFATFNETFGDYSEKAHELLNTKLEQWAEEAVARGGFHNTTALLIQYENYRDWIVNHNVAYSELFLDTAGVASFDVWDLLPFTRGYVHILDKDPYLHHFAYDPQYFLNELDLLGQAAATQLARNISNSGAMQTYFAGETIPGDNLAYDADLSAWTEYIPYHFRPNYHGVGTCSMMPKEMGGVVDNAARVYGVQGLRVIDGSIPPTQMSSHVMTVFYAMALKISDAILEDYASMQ
compound,measurement,setting,value
"O=C(O)c1cc(SSc2ccc([N+](=O)[O-])c(C(=O)O)c2)ccc1[N+](=O)[O-] [DTNB, 5,5′-dithiobis-2-nitrobenzoic acid, reference compound]",GOx Activity,"glucose oxidase (GOx) [1]; IC50 data, inhibitor 1.4 nM, glucose 10 mM",0.0674 min⁻¹
same,GOx Activity,"glucose oxidase (GOx) [1]; IC50 data, inhibitor 3.5 nM, glucose 10 mM",0.0701 min⁻¹
same,GOx Activity,"glucose oxidase (GOx) [1]; IC50 data, inhibitor 7.0 nM, glucose 10 mM",0.063 min⁻¹
same,GOx Activity,"glucose oxidase (GOx) [1]; IC50 data, inhibitor 14.0 nM, glucose 10 mM",0.0639 min⁻¹
same,GOx Activity,"glucose oxidase (GOx) [1]; IC50 data, inhibitor 70.0 nM, glucose 10 mM",0.0603 min⁻¹
same,GOx Activity,"glucose oxidase (GOx) [1]; IC50 data, inhibitor 140.0 nM, glucose 10 mM",0.0454 min⁻¹
same,GOx Activity,"glucose oxidase (GOx) [1]; IC50 data, inhibitor 700.0 nM, glucose 10 mM",0.0399 min⁻¹
same,GOx Activity,"glucose oxidase (GOx) [1]; IC50 data, inhibitor 1400.0 nM, glucose 10 mM",0.0322 min⁻¹
same,GOx Activity,"glucose oxidase (GOx) [1]; IC50 data, inhibitor 1428571.0 nM, glucose 10 mM",0.0388 min⁻¹
same,GOx Activity,"glucose oxidase (GOx) [1]; Ki data, inhibitor 3,5·10^-8 M, [Glucose] 0.0002 M",0.0024 min⁻¹
same,GOx Activity,"glucose oxidase (GOx) [1]; Ki data, inhibitor 3,5·10^-8 M, [Glucose] 0.0007 M",0.0073 min⁻¹
same,GOx Activity,"glucose oxidase (GOx) [1]; Ki data, inhibitor 3,5·10^-8 M, [Glucose] 0.0014 M",0.013 min⁻¹
same,GOx Activity,"glucose oxidase (GOx) [1]; Ki data, inhibitor 3,5·10^-8 M, [Glucose] 0.0028 M",0.0254 min⁻¹
same,GOx Activity,"glucose oxidase (GOx) [1]; Ki data, inhibitor 3,5·10^-8 M, [Glucose] 0.004 M",0.0298 min⁻¹
same,GOx Activity,"glucose oxidase (GOx) [1]; Ki data, inhibitor 7·10^-8 M, [Glucose] 0.0002 M",0.0022 min⁻¹
same,GOx Activity,"glucose oxidase (GOx) [1]; Ki data, inhibitor 7·10^-8 M, [Glucose] 0.0007 M",0.0054 min⁻¹
same,GOx Activity,"glucose oxidase (GOx) [1]; Ki data, inhibitor 7·10^-8 M, [Glucose] 0.0014 M",0.0121 min⁻¹
same,GOx Activity,"glucose oxidase (GOx) [1]; Ki data, inhibitor 7·10^-8 M, [Glucose] 0.0028 M",0.0197 min⁻¹
same,GOx Activity,"glucose oxidase (GOx) [1]; Ki data, inhibitor 7·10^-8 M, [Glucose] 0.004 M",0.0279 min⁻¹
same,GOx Activity,"glucose oxidase (GOx) [1]; Ki data, inhibitor 14·10^-8 M, [Glucose] 0.0002 M",0.0008 min⁻¹
same,GOx Activity,"glucose oxidase (GOx) [1]; Ki data, inhibitor 14·10^-8 M, [Glucose] 0.0007 M",0.004 min⁻¹
same,GOx Activity,"glucose oxidase (GOx) [1]; Ki data, inhibitor 14·10^-8 M, [Glucose] 0.0014 M",0.0074 min⁻¹
same,GOx Activity,"glucose oxidase (GOx) [1]; Ki data, inhibitor 14·10^-8 M, [Glucose] 0.0028 M",0.015 min⁻¹
same,GOx Activity,"glucose oxidase (GOx) [1]; Ki data, inhibitor 14·10^-8 M, [Glucose] 0.004 M",0.0236 min⁻¹
same,1/Vo,"glucose oxidase (GOx) [1]; inhibitor 0,07 µM, 1/[glucose] 250 M-1",32.9749 min
same,1/Vo,"glucose oxidase (GOx) [1]; inhibitor 0,07 µM, 1/[glucose] 357 M-1",56.0355 min
same,1/Vo,"glucose oxidase (GOx) [1]; inhibitor 0,07 µM, 1/[glucose] 714 M-1",65.6495 min
same,1/Vo,"glucose oxidase (GOx) [1]; inhibitor 0,07 µM, 1/[glucose] 1430 M-1",135.55 min
same,1/Vo,"glucose oxidase (GOx) [1]; inhibitor 0,07 µM, 1/[glucose] 5000 M-1",532.407 min
same,1/Vo,"glucose oxidase (GOx) [1]; inhibitor 0,14 µM, 1/[glucose] 250 M-1",37.1744 min
same,1/Vo,"glucose oxidase (GOx) [1]; inhibitor 0,14 µM, 1/[glucose] 357 M-1",57.2815 min
same,1/Vo,"glucose oxidase (GOx) [1]; inhibitor 0,14 µM, 1/[glucose] 714 M-1",76.102 min
same,1/Vo,"glucose oxidase (GOx) [1]; inhibitor 0,14 µM, 1/[glucose] 1430 M-1",148 min
same,1/Vo,"glucose oxidase (GOx) [1]; inhibitor 0,14 µM, 1/[glucose] 5000 M-1",505.051 min
same,Inhibitor Type,glucose oxidase (GOx) [1]; Lineweaver–Burk plots,non-competitive
same,Ki,"glucose oxidase (GOx) [1]; non-competitive inhibition model, 37 °C, sodium acetate buffer pH 5.1",200 ± 20 nM
same,effect on GOx-directed DCL,glucose oxidase (GOx) [2],prevented the amplification of any other ligands except DTNB
same,Emission Average,glucose oxidase (GOx) [3]; [4],1800741
same,Normalized Fluorescence,glucose oxidase (GOx) [3]; [4],0.1466
same,Emission Average,glucose oxidase (GOx) [3]; [5],955958
same,Normalized Fluorescence,glucose oxidase (GOx) [3]; [5],0.5470
same,Emission Average,glucose oxidase (GOx) [3]; [6],361199
same,Normalized Fluorescence,glucose oxidase (GOx) [3]; [6],0.8288
same,Emission Average,glucose oxidase (GOx) [3]; [7],25171.8
same,Normalized Fluorescence,glucose oxidase (GOx) [3]; [7],0.9881
same,Emission Average,glucose oxidase (GOx) [3]; [8],521.51
same,Normalized Fluorescence,glucose oxidase (GOx) [3]; [8],0.9998
same,Kd,"glucose oxidase (GOx) [3]; apparent dissociation constant, read-out: Kd'",64 ± 2 µM
OC[C@H]1O[C@@H](O)[C@H](O)[C@@H](O)[C@@H]1O [β-D-glucose],Kd,apo and holo GOx,~10 mM
same,Kd,glucose oxidase (GOx) [3]; read-out: apparent dissociation constant,1100 ± 20 µM
same,Emmsion average,glucose oxidase (GOx) [3]; [9],4205310
same,Normalized Fluorescence,glucose oxidase (GOx) [3]; [9],0.03401
same,Emmsion average,glucose oxidase (GOx) [3]; [10],4080311
same,Normalized Fluorescence,glucose oxidase (GOx) [3]; [10],0.00328
same,Emmsion average,glucose oxidase (GOx) [3]; [11],4060405
same,Normalized Fluorescence,glucose oxidase (GOx) [3]; [11],-0.00162
same,Emmsion average,glucose oxidase (GOx) [3]; [12],4998302
same,Normalized Fluorescence,glucose oxidase (GOx) [3]; [12],0.229
same,Emmsion average,glucose oxidase (GOx) [3]; [13],5886318
same,Normalized Fluorescence,glucose oxidase (GOx) [3]; [13],0.4473
same,Emmsion average,glucose oxidase (GOx) [3]; [14],6538644
same,Normalized Fluorescence,glucose oxidase (GOx) [3]; [14],0.6077
same,Emmsion average,glucose oxidase (GOx) [3]; [15],6499875
same,Normalized Fluorescence,glucose oxidase (GOx) [3]; [15],0.5982
same,Emmsion average,glucose oxidase (GOx) [3]; [16],5944287
same,Normalized Fluorescence,glucose oxidase (GOx) [3]; [16],0.4616
same,Emmsion average,glucose oxidase (GOx) [3]; [17],7469372
same,Normalized Fluorescence,glucose oxidase (GOx) [3]; [17],0.8366
same,Emmsion average,glucose oxidase (GOx) [3]; [18],7323012
same,Normalized Fluorescence,glucose oxidase (GOx) [3]; [18],0.8006
